In ChEMBL document CHEMBL4340569, “Optimization of a small-molecule Lipid II binder” (Bioorg Med Chem Lett, 2019):

How the values were obtained:
[1] = Binding affinity to bacterial lipid 2 by surface plasmon resonance assay; design: species or system Bacteria
[2] = tested on: Staphylococcus aureus; test: Antimicrobial activity against Staphylococcus aureus ATCC […] by broth dilution method; assay type: functional; conditions: ATCC 29213
[3] = tested on: Enterococcus faecium; test: Antimicrobial activity against Enterococcus faecium EF1509 by broth dilution method; assay type: functional
[4] = tested on: Staphylococcus aureus; test: Antimicrobial activity against methicillin-resistant Staphylococcus aureus 1094 by broth dilution method; assay type: functional
[5] = tested on: Staphylococcus aureus; test: Antimicrobial activity against methicillin-resistant Staphylococcus aureus HFH-30123 by broth dilution method; assay type: functional
[6] = tested on: Enterococcus faecium; test: Antimicrobial activity against vancomycin-resistant Enterococcus faecium EF1509 by broth dilution method; assay type: functional
[7] = tested on: Enterococcus faecium; test: Antimicrobial activity against vancomycin-resistant Enterococcus faecium F118 by broth dilution method; assay type: functional
[8] = tested on: Klebsiella pneumoniae; test: Antimicrobial activity against carbapenemase KPC producing Klebsiella pneumoniae NR-15410 by broth dilution method; assay type: functional
[9] = tested on: Klebsiella pneumoniae; test: Antimicrobial activity against carbapenemase KPC producing Klebsiella pneumoniae NR-15411 by broth dilution method; assay type: functional
[10] = tested on: Acinetobacter baumannii; test: Antimicrobial activity against Acinetobacter baumannii ATCC 19606 by broth dilution method; assay type: functional; conditions: ATCC 19606 = CIP 70.34 = JCM 6841
[11] = Cytotoxicity against human HeLa cells incubated for 72 hrs; assay type: cell-based
[12] = tested on: Pseudomonas aeruginosa; test: Antimicrobial activity against Pseudomonas aeruginosa PAO1 by broth dilution method; assay type: functional
[13] = tested on: Pseudomonas aeruginosa; test: Antimicrobial activity against Pseudomonas aeruginosa X13273 by broth dilution method; assay type: functional
[14] = tested on: Pseudomonas aeruginosa; test: Antimicrobial activity against Pseudomonas aeruginosa ATCC 27853 by broth dilution method; assay type: functional
[15] = Antimicrobial activity against Enterobacter cloacae ATCC 13047 by broth dilution method; assay type: functional, Enterobacter cloacae subsp. cloacae
[16] = tested on: Klebsiella aerogenes; test: Antimicrobial activity against Klebsiella aerogenes ATCC 13048 by broth dilution method; assay type: functional
[17] = Ratio of EC50 for human HeLa cells to MIC of Enterococcus faecium; assay type: toxicity
[18] = Half life in CD1 mouse at […], iv measured after 5 mins to 14 hrs by LC/MS/MS analysis; assay type: ADME, organism-based; conditions: in vivo; for half-life: CD1, mouse
[19] = Extrapolated AUC in CD1 mouse at […], iv measured after 5 mins to 14 hrs by LC/MS/MS analysis; assay type: ADME, organism-based; conditions: in vivo
[20] = Dose normalized AUClast in CD1 mouse at […], iv measured after 5 mins to 14 hrs by LC/MS/MS analysis; assay type: ADME, organism-based; conditions: in vivo
[21] = Volume of distribution at steady state in CD1 mouse at […], iv measured after 5 mins to 14 hrs by LC/MS/MS analysis; assay type: ADME, organism-based; conditions: in vivo; for Vd: CD1, mouse, read-out: Vdss
[22] = MRT in CD1 mouse at […], iv measured after 5 mins to 14 hrs by LC/MS/MS analysis; assay type: ADME, organism-based; conditions: in vivo
[23] = Toxicity in CD1 mouse assessed as induction of adverse clinical observations at […], iv measured after 5 mins to 14 hrs; assay type: organism-based; conditions: in vivo
[24] = Cmax in CD1 mouse at […], iv measured after 5 mins to 14 hrs by LC/MS/MS analysis; assay type: ADME, organism-based; design: dose 2.5 mg/kg, route intravenous; conditions: in vivo
[25] = AUClast in CD1 mouse at […], iv measured after 5 mins to 14 hrs by LC/MS/MS analysis; assay type: ADME, organism-based; design: time upper 14 hr, dose 2.5 mg/kg, time lower 0.083 hr, route intravenous; conditions: in vivo
[26] = AUC (infinity) in CD1 mouse at […], iv measured after 5 mins to 14 hrs by LC/MS/MS analysis; assay type: ADME, organism-based; design: dose 2.5 mg/kg, time infinity, route intravenous; conditions: in vivo

## CN(C)c1ccc(/C=C/c2cc(-c3ccc(Br)cc3)cc(-c3ccc(Br)cc3)[o+]2)cc1.F[B-](F)(F)F
[1]
  Kd: 150 nM
[2]
  MIC: 23.4 to 80 µM
[3]
  MIC: 46.8 to 80 µM
[4]
  MIC: 32 µM
[5]
  MIC: 32 µM
[6]
  MIC: 2.82 µM
[7]
  MIC: 5.65 µM
[8]
  MIC: ≥ 80 µM
[9]
  MIC: ≥ 80 µM
[10]
  MIC: ≥ 80 µM
[11]
  CC50 at 72 h: ≥ 80 µg/mL
[12]
  MIC: ≥ 80 µM
[13]
  MIC: ≥ 80 µM
[14]
  MIC: ≥ 80 µM
[15]
  MIC: ≥ 80 µM
[16]
  MIC: ≥ 80 µM
[17]
  selectivity ratio: ≥ 80
[18]; mouse
  t1/2: 13.3 h
[19]
  %AUCextra: 24.3%
[20]
  AUClast/dose: 536 ng·h/mL
[21]; mouse
  Vdss: 22.8 L/kg
[22]; mouse
  MRT: 7.29 h
[23]
  Activity: Non-Toxic

## CC(=O)N1CCN(c2ccc(/C=C/c3cc(-c4ccc(F)cc4)cc(-c4ccc(F)cc4)[o+]3)cc2)CC1
[2]
  MIC: > 80 µM
[3]
  MIC: > 80 µM

## Brc1ccc(-c2cc(/C=C/c3ccc(N4CCOCC4)cc3)[o+]c(-c3ccc(Br)cc3)c2)cc1
[2]
  MIC: > 80 µM
[3]
  MIC: > 80 µM

## CN(C)c1ccc(/C=C/c2cc(-c3ccc(F)cc3)cc(-c3ccc(F)cc3)[o+]2)cc1.F[B-](F)(F)F
[1]
  Kd: 340 nM
[2]
  MIC: 3.9 µM
[3]
  MIC: 2 µM
[4]
  MIC: 4.42 µM
[5]
  MIC: 6.25 µM
[6]
  MIC: 1.56 µM
[7]
  MIC: 6.25 µM
[8]
  MIC: ≥ 80 µM
[9]
  MIC: ≥ 80 µM
[10]
  MIC: ≥ 80 µM
[11]
  CC50 at 72 h: ≥ 80 µg/mL
[12]
  MIC: ≥ 80 µM
[13]
  MIC: ≥ 80 µM
[14]
  MIC: ≥ 80 µM
[15]
  MIC: ≥ 80 µM
[16]
  MIC: ≥ 80 µM
[17]
  selectivity ratio: ≥ 80
[18]
  half-life: 6.81 h
[24]
  Cmax: 3220 ng/mL
[25]
  AUC(0-t): 565 ng·h/mL
[26]
  AUC: 578 ng·h/mL
[19]
  %AUCextra: 2.25%
[20]
  AUClast/dose: 56.5 ng·h/mL
[21]
  Vd: 46.3 L/kg
[22]; CD1, mouse, read-out: MRT
  MRT: 1.74 h
[23]
  Activity: Non-Toxic

## Brc1ccc(-c2cc(/C=C/c3ccc(N4CCCCC4)cc3)[o+]c(-c3ccc(Br)cc3)c2)cc1
[2]
  MIC: > 80 µM
[3]
  MIC: > 80 µM

## CN(/C=C/c1cc(-c2cccc(Br)c2)cc(-c2cccc(Br)c2)[o+]1)CCO
[2]
  MIC: > 80 µM
[3]
  MIC: > 80 µM

## CN1/C(=C/C=C/c2cc(-c3ccccc3)cc(-c3ccccc3)[o+]2)C(C)(C)c2ccccc21.F[B-](F)(F)F
[18]
  half-life: 0.227 h
[24]
  Cmax: 101 ng/mL
[25]
  AUC(0-t): 26.9 ng·h/mL
[26]
  AUC: 27.9 ng·h/mL
[19]
  %AUCextra: 4.38%
[20]
  AUClast/dose: 26.9 ng·h/mL
[21]
  Vd: 12.2 L/kg
[22]; CD1, mouse, read-out: MRT
  MRT: 0.226 h
[23]
  Activity: Non-Toxic

## ClCCN(/C=C/c1cc(-c2cccc(Br)c2)cc(-c2cccc(Br)c2)[o+]1)CCCl
[2]
  MIC: 49.3 µM
[3]
  MIC: 49.3 µM

## CCN(CC)c1ccc(/C=C/c2cc(-c3ccc(Br)cc3)cc(-c3ccc(Br)cc3)[o+]2)cc1
[2]
  MIC: > 80 µM
[3]
  MIC: > 80 µM

## CN1/C(=C/C=C/c2cc(-c3ccc(Br)cc3)cc(-c3ccc(Br)cc3)[o+]2)C(C)(C)c2cc(Cl)ccc21
[2]
  MIC: 45.1 µM
[3]
  MIC: 22.5 µM

## CN1/C(=C/c2ccc(/C=C/c3cc(-c4ccc(Br)cc4)cc(-c4ccc(Br)cc4)[o+]3)cc2)C(C)(C)c2ccccc21
[2]
  MIC: 24.5 µM
[3]
  MIC: 12.2 µM

## CC(C)(C)OC(=O)N1CCN(c2ccc(/C=C/c3cc(-c4ccc(F)cc4)cc(-c4ccc(F)cc4)[o+]3)cc2)CC1
[2]
  MIC: > 80 µM
[3]
  MIC: > 80 µM

## ClCCN(CCCl)c1ccc(/C=C/c2cc(-c3ccc(Br)cc3)cc(-c3ccc(Br)cc3)[o+]2)cc1
[2]
  MIC: > 80 µM
[3]
  MIC: > 80 µM

## O=C(c1ccccc1)N1CCN(c2ccc(/C=C/c3cc(-c4ccc(F)cc4)cc(-c4ccc(F)cc4)[o+]3)cc2)CC1
[2]
  MIC: 28.5 µM
[3]
  MIC: 57 µM

## OCCN(CCO)c1ccc(/C=C/c2cc(-c3cccc(F)c3)cc(-c3cccc(F)c3)[o+]2)cc1
[1]
  Kd: 310 nM
[2]
  MIC: 2.1 µM
[3]
  MIC: 3.9 µM
[4]
  MIC: 12.5 µM
[5]
  MIC: 12.5 µM
[6]
  MIC: 3.13 µM
[7]
  MIC: 12.5 µM
[8]
  MIC: ≥ 80 µM
[9]
  MIC: ≥ 80 µM
[10]
  MIC: ≥ 80 µM
[11]
  CC50 at 72 h: ≥ 80 µg/mL
[12]
  MIC: ≥ 80 µM
[13]
  MIC: ≥ 80 µM
[14]
  MIC: ≥ 80 µM
[15]
  MIC: ≥ 80 µM
[16]
  MIC: ≥ 80 µM
[17]
  selectivity ratio: 49.3

## Fc1ccc(-c2cc(/C=C/N3CCNCC3)[o+]c(-c3ccc(F)cc3)c2)cc1
[1]
  Kd: 6200 nM
[2]
  MIC: 3.8 µM
[3]
  MIC: 1.9 µM
[4]
  MIC: 6.25 µM
[5]
  MIC: 6.25 µM
[6]
  MIC: 3.13 µM
[7]
  MIC: 8.84 µM
[8]
  MIC: ≥ 80 µM
[9]
  MIC: ≥ 80 µM
[10]
  MIC: ≥ 80 µM
[11]
  CC50 at 72 h: ≥ 80 µg/mL
[12]
  MIC: ≥ 80 µM
[13]
  MIC: ≥ 80 µM
[14]
  MIC: ≥ 80 µM
[15]
  MIC: ≥ 80 µM
[16]
  MIC: ≥ 80 µM
[17]
  selectivity ratio: 62.6

## CCC(=O)N1CCN(c2ccc(/C=C/c3cc(-c4cccc(Br)c4)cc(-c4cccc(Br)c4)[o+]3)cc2)CC1
[2]
  MIC: 12.8 µM
[3]
  MIC: 51.4 µM

## CN(C)c1ccc(/C=C/c2ccc(/C=C/c3cc(-c4ccc(Br)cc4)cc(-c4ccc(Br)cc4)[o+]3)cc2)cc1
[2]
  MIC: > 80 µM
[3]
  MIC: > 80 µM

## OCCN(CCO)c1ccc(/C=C/c2cc(-c3ccc(Br)cc3)cc(-c3ccc(Br)cc3)[o+]2)cc1
[2]
  MIC: > 80 µM
[3]
  MIC: > 80 µM

## CN(CCO)c1ccc(/C=C/c2cc(-c3ccc(Br)cc3)cc(-c3ccc(Br)cc3)[o+]2)cc1
[2]
  MIC: > 80 µM
[3]
  MIC: > 80 µM
